{
  "source": "patent US20210207099A1",
  "about": "“METHODS AND COMPOSITIONS FOR GENERATING CELLS OF ENDODERMAL LINEAGE AND BETA CELLS AND USES THEREOF” (priority 2018, published 2021)",
  "format_in_all_cases": "cell-based, human",
  "key": {"[1]": {"test_system": "plated pancreatic progenitors", "test": "Latrunculin A at different stages of SC-β cell differentiation of plated pancreatic progenitors (flow cytometry, GSIS, insulin content, qRT-PCR)", "from_the_text": "For experiments investigating the effects of plating pancreatic progenitors, cells were differentiated with the suspension protocol for stages 1-3. At the end of stage 3, clusters were single cell dispersed with TrypLE and plated onto tissue culture plates coated with various ECM proteins at 0.625×10^6 cells/cm^2. Differentiation media for the remainder of this hybrid protocol were the same as for the suspension protocol with the exception that Y-27632 and Activin A were omitted on days 2-5 of stage 4. […] A variety of ECM coatings were initially tested with this plating methodology, including collagen I (Corning, 354249), collagen IV (Corning, 354245), fibronectin (Gibco, 33016-015), vitronectin (Gibco, A14700), matrigel (Corning, 356230), gelatin (Fisher, G7-500), and laminins 111, 121, 211, 221, 411, 421, 511, and 521 (Biolamina, LNKT-0201). All subsequent experiments with this hybrid protocol were performed on collagen I.\nRNA was extracted from either whole clusters or cells directly on the plate with the RNeasy Mini Kit (Qiagen, 74016). Samples were treated with a DNAse kit (Qiagen, 79254) during extraction. The High Capacity cDNA Reverse Transcriptase Kit (Applied Biosystems, 4368814) was used to synthesize cDNA on a thermocycler (Applied Biosystems, A37028). The PowerUp SYBR Green Master Mix (Applied Biosystems, A25741) was used on a StepOnePlus (Applied Biosystems), and real time PCR results were analyzed using a ΔΔCt methodology. TBP and GUSB were both used as housekeeping genes. Primer sequences were as follows.\nCells were single-cell dispersed with TrypLE and fixed with 4% PFA for 30 minutes. Cells were then washed with PBS and incubated with ICC solution for 45 minutes at room temperature, incubated with primary antibodies overnight at 4° C., and incubated with secondary antibodies for 2 hours at room temperature. Cells were then washed twice with ICC solution and filtered before running on the LSRII flow cytometer (BD Biosciences). Analysis was completed with FlowJo.\nStatic GSIS: To assess the function of cells produced by the hybrid protocol, static GSIS was performed with cells still attached to 96 or 24-well tissue culture plates. To assess function of clusters generated with the planar protocol, approximately 30 clusters were collected and placed in tissue culture transwell inserts (MilliporeSigma, PIXP01250) in a 24-well plate. […] Cells were first incubated in a 2 mM glucose KRB solution at 37° C. for one hour, after which this solution was discarded and replaced with fresh 2 mM glucose KRB. After an additional hour, the supernatant was collected. 20 mM glucose KRB was added for the next hour, after which the supernatant was again collected. Cells were washed with fresh KRB during each solution change. Cells were then single-cell dispersed with TrypLE and counted with the Vi-Cell XR (Beckman Coulter). Supernatants from the low and high glucose challenges were quantified with a human insulin ELISA (ALPCO, 80-INSHU-E10.1), and cell counts were used to normalize insulin secretion.\nWhole SC-β cell clusters or cells attached to culture plates were washed twice thoroughly with PBS. Half of the clusters or an equivalent well of plated cells were immersed in TrypLE for cell counts on the Vi-Cell XR. For the other half of the samples, a solution of 1.5% HCl and 70% ethanol was added to either the clusters in eppendorf tubes or directly onto plated cells. After 15 minutes, the plated cells were pipetted vigorously and transferred to eppendorf tubes. The eppendorf tubes from both clusters and plated cells were kept at −20° C. for 72 hours, vortexing vigorously every 24 hours. Samples were then centrifuged at 2100 RCF for 15 minutes. […] Proinsulin and insulin secretion were normalized to the viable cell counts."}, "[2]": {"test_system": "HUES8 cells, intestinal differentiation protocol", "test": "Intestine differentiation with cytoskeletal compounds", "conditions": "1 μM for the first 24 hours of stage 2", "method": "For differentiation to other endodermal lineages, HUES8 stem cells were cultured and passaged normally. Differentiations were initiated 24 hours after seeding 24-well plates at 0.521×10^6 cells/cm^2. Protocols for exocrine pancreas, intestine, and liver were adapted, from literature. Either latrunculin A or nocodazole were added as indicated in each protocol. All three differentiation protocols used the same stage 1 to induce endoderm. Stage 1 (4 days): BE1 media+100 ng/mL Activin A+3 μM CHIR99021 for the first 24 hours, followed with 3 days of BE1 containing 100 ng/mL Activin A only.\nIntestine Differentiation: Stage 2 (4 days): BE2 media+3 μM CHIR99021+500 ng/mL FGF4 (R&D Systems, 235-F4). Either 1 μM latrunculin A was added for the first 24 hours of this stage, or 1 μM nocodazole was added for the entirety of stage 2. Stage 3 (7 days): BE3 media+500 ng/mL R-spondin1 (R&D Systems, 4645-RS)+100 ng/mL EGF (R&D Systems, 236-EG)+200 nM LDN193189."}, "[3]": {"test_system": "HUES8 cells differentiated with the planar protocol", "test": "Latrunculin A in the completely planar SC-β cell differentiation protocol", "description": "Planar protocol: 24 hours after passaging, cells seeded onto 6 or 24-well plates at 0.313-0.521×10^6 cells/cm^2 were differentiated with a new 6 stage protocol using the following formulations, with media changes every day. Stage 1 (4 days): BE1 media+100 ng/mL Activin A+3 μM CHIR99021 for the first 24 hours, followed with 3 days of BE1 containing 100 ng/mL Activin A only. Stage 2 (2 days): BE2 media+50 ng/mL KGF. Stage 3 (2 days): BE3+50 ng/mL KGF, 200 nM LDN193189, 500 nM TPPB (Tocris, 53431), 2 μM retinoic acid, and 0.25 μM SANT1. Stage 4 (4 days): BE3+50 ng/mL KGF, 200 nM LDN193189, 500 nM TPPB, 0.1 μM retinoic acid, and 0.25 μM SANT1. Stage 5 (7 days): S5 media+10 μM ALK5i II+20 ng/mL Betacellulin+0.1 μM retinoic acid+0.25 μM SANT1+1 μM T3+1 μM XXI. 1 μM Latrunculin A was added to this media for the first 24 hours only. Stage 6 (7-25 days): Cultures were kept on the plate with ESFM for the first 7 days. To move to suspension culture, cells could be single cell dispersed with TrypLE and placed in 6 mL ESFM within a 6-well plate at a concentration of 4-5 million cells/well on an orbital shaker at 100 RPM. Assessments were performed 5-8 days after cluster aggregation.\nCells were single-cell dispersed with TrypLE and fixed with 4% PFA for 30 minutes. Cells were then washed with PBS and incubated with ICC solution for 45 minutes at room temperature, incubated with primary antibodies overnight at 4° C., and incubated with secondary antibodies for 2 hours at room temperature. […]"}, "[4]": {"conditions": "24 hour 1 μM treatment, stage 5"}},
  "data": [
    {"smiles": "C/C1=C/C(=O)O[C@@H]2C[C@@H](CC[C@H](C)/C=C\\C=C\\CC1)O[C@@](O)([C@@H]1CSC(=O)N1)C2", "note": "[latrunculin A]", "values": [
      {"measurement": "endocrine induction, SC-β cell specification and GSIS", "setting": "[1]; 0.5 μM added during stage 5", "value": "greatest increase in endocrine induction, SC-β cell specification, and glucose-stimulated insulin secretion (GSIS)"},
      {"measurement": "endocrine induction and β-cell specification", "setting": "[1]; 0.5 μM throughout either stage 4 or stage 6", "value": "increased both general endocrine induction (CHGA+) and β-cell specification (NKX6-1+/c-peptide+)"},
      {"measurement": "GSIS, optimization of duration and concentration during stage 5", "setting": "[1]; 1 μM during the first 24 hours of stage 5", "value": "most benefit at the shortest and lowest dose"},
      {"measurement": "expression of endocrine genes", "setting": "[1]; [4]", "value": "increased expression of endocrine genes"},
      {"measurement": "expression of markers associated with other endodermal lineages", "setting": "[1]; [4]", "value": "reduced"},
      {"measurement": "pro-insulin/insulin ratio", "setting": "[1]; [4]", "value": "improved pro-insulin/insulin ratio"},
      {"measurement": "total insulin content", "setting": "[1]; [4]", "value": "increased total insulin content"},
      {"measurement": "markers of intestinal stem cells and Paneth cells", "setting": "[2]", "value": "greatly increased markers intestinal stem cells as well as Paneth cells"},
      {"measurement": "endocrine induction, SC-β cell specification and off-target lineages", "setting": "[3]; 1 μM for the first 24 hours of stage 5", "value": "greatly increased endocrine induction and SC-β cell specification while decreasing off-target lineages"},
      {"measurement": "NKX6-1 expression", "setting": "[3]; added during stage 4 (0.5 μM)", "value": "decreasing NKX6-1 expression"},
      {"measurement": "premature expression of NEUROG3 and its downstream targets", "setting": "[3]; added during stage 4 (0.5 μM)", "value": "dramatically increased premature expression of NEUROG3"}
    ]}
  ]
}
